# From patent publication US20220305020A1, “THE USE OF PARAXANTHINE TO REDUCE EXERCISE-INDUCED MENTAL FATIGUE” (Ingenious Ingredients, LP, priority 2021, published 2022)
# Assays:
# Male, 51 = assay: Uchida-Kraepelin test (UKT), serial calculation test of mental fatigue; type: in vivo, human; details: one subject; for increase of mean performance during the first 15-minutes of UKT / mental fatigue (gradual decrease in performance) during the second 15-minutes of UKT: 200 mg of paraxanthine or 200 ng of caffeine
# Procedure: […], consumed 200 mg of paraxanthine or […] or placebo, separated by one-week wash-out, prior to performing a serial calculation test, the Uchida-Kraepelin test (UKT), that is designed to measure mental fatigue. The test has been standardized and is widely used in clinical psychology, psychiatry, and occupational mental health practice. In this test, a subject is instructed to perform serial calculation of random numbers printed on a paper for 15 minutes. After a 5-minute rest, another 15 minutes of calculations are performed. The test subject is instructed to compute as many calculations as possible. Performance is assessed by 1-minute intervals.
# trained runners [1] = assay: Berg-Wisconsin Card Sorting Test (BCST) before and after a mentally fatiguing 10-km run; type: in vivo, human; details: 200 mg oral; after 10-km run compared to pre-exhaustive exercise
# Procedure: (§1) Trained runners from local running and triathlon clubs and races were recruited to participate in this study. Cognitive performance was assessed prior and after a mentally fatiguing endurance run. Eligibility criteria included healthy trained runners or triathletes between 18-40 years of age, current (>6 months) history of run training, and documented evidence that they averaged 8 minute/mile or less running pace during a recent competition (e.g., completing a 5-km road race or marathon). Qualified runners were invited to attend a familiarization session which provided an overview of the study and participants informed consent to participate in the study. A total of 32 individuals responded to study advertisements and were assessed for eligibility, 28 completed a familiarization session, 13 met eligibility requirements, agreed to participant in the study and were randomized into treatments. 1 subject dropped out of the study due to not complying with the study protocol. 12 subjects (11 males, 1 female) ultimately finished the trial. Volunteers visited the lab a total of five times including one familiarization session and four experimental sessions. During the familiarization session, participants were explained the study protocol, provided informed consent, answered a medical questionnaire, and had height, weight, resting heart rate, and resting blood pressure. Males then had body composition determined using dual energy X-ray absorptiometry (DXA) while females took a urine pregnancy test prior to the DXA scan to verify they were not pregnant. Participants then took each cognitive function test three times to familiarize them to the tests and establish test reliability. Volunteers practiced running on the treadmill to be used in the study at race pace. Once completed, the participants then performed a graded maximal cardiopulmonary (VO2 peak) treadmill test to determine peak heart rate and aerobic capacity. Participants were also asked to maintain usual eating habits and avoid new dietary supplements for the duration of the study. Participants were also asked to prepare for each testing session as they would a 10-km road race and refrain from vigorous physical activity, alcohol intake, and over-the-counter medications for 24 hours as well as fast for 8-12 hours prior to reporting to the lab. […] Upon arriving at the lab, participants had weight, resting heart rate, and blood pressure determined. Participants then completed a side effects questionnaire, performed two cognitive function tests, the Psychomotor Vigilance Task Test (PVTT), a test that objectively assesses fatigue-related changes in alertness, and the Berg-Wisconsin Card Sorting Test (BCST), donated a fasting blood sample, and then ingested 1 of 4 randomly assigned oral supplements (PRE). Supplements were administered in a double blind, randomized, and crossover manner using a Balanced Latin Square method to counterbalance the order of treatment administration. Treatments included (1) 400 mg of placebo (PL, wheat flour, Shandong Bailong Chuangyuan Bio-tec Co. Ltd., Dezhou, China); (2) 200 mg of PL+200 mg of Caffeine (CSPC Innovation Pharmaceutical Co. Ltd., Shi Jiazhuang, China); (3) 200 mg of PL+200 mg of […], Ingenious Ingredients, L.P. Lewisville, Tex., USA) or (4) 200 mg CA+200 mg of PX (CA+PX). Supplements were prepared using good manufacturing practices and certified for content. Supplements were the same size and appearance and packaged in generically labeled bottles for administration in a double-blind manner. Participants ingested one capsule with 8-ounces of water of the assigned treatment. Participants then rested for 15-minutes and repeated these tests. Volunteers then performed a 10-km run at their self-determined pace. Heart rate was obtained every kilometer during the run. Once completed, participants donated a venous blood sample. Participants then completed the cognitive function tests and the side effects questionnaire. […]
# glutathione = assay: Glutathione levels in young and old rats after paraxanthine supplementation; type: in vivo
# trained runners [2] = assay: Psychomotor Vigilance Task Test (PVTT) before and after a mentally fatiguing 10-km run; type: in vivo, human
# Procedure: as §1
# BDNF = BDNF levels in young and old rats after paraxanthine supplementation; type: in vivo
# catalase = assay: Catalase levels in young and old rats after paraxanthine supplementation; type: in vivo
# [3] = old rats, high-dose paraxanthine group
# [4] = old rats, low-dose paraxanthine group
# [5] = young rats, high-dose paraxanthine group
# [6] = young rats, low-dose paraxanthine group
# [7] = 200 mg oral, compared to pre-exhaustive exercise
smiles,measurement,setting,value
"Cn1c(=O)c2c(ncn2C)n(C)c1=O [caffeine, reference compound]",increase of mean performance during the first 15-minutes of UKT,"Male, 51",7%
same,mental fatigue (gradual decrease in performance) during the second 15-minutes of UKT,"Male, 51",failed to prevent metal fatigue
same,increase in number of correct responses in the BCST,trained runners [1],did not change
same,increase in number of errors in the BCST,trained runners [1],19.4%
same,increase in number of preservative errors (PAR rules) in the BCST,trained runners [1],23.3%
same,increase in number of preservative errors in the BCST,trained runners [1],15.9%
Cn1c(=O)[nH]c2ncn(C)c2c1=O [paraxanthine],glutathione levels,glutathione; [3],27.49 ± 0.84 µg/mL
same,glutathione levels,glutathione; [4],22.27 ± 1.00 µg/mL
same,glutathione levels,glutathione; [5],34.41 ± 1.97 µg/mL
same,glutathione levels,glutathione; [6],24.04 ± 1.74 µg/mL
same,increase of mean performance during the first 15-minutes of UKT,"Male, 51",15%
same,mental fatigue (gradual decrease in performance) during the second 15-minutes of UKT,"Male, 51",prevented mental fatigue
same,increase of mean performance during the second 15-minutes of UKT,"Male, 51; 200 mg of paraxanthine",21%
same,"greater improvement in reaction time compared to caffeine, trial 2","trained runners [2]; 200 mg oral each, PVTT",25%
same,"greater improvement in reaction time compared to caffeine, trial 10","trained runners [2]; 200 mg oral each, PVTT",44%
same,"greater improvement in reaction time compared to caffeine, trial 20","trained runners [2]; 200 mg oral each, PVTT",12%
same,"improvement of reaction time in the PVT Test, early trials (trial 2)",trained runners [2]; [7],7.3%
same,"improvement of reaction time in the PVT Test, late trials (trial 20)",trained runners [2]; [7],10.9%
same,"improvement of reaction time in the PVT Test, middle trials (trial 10)",trained runners [2]; [7],10.9%
same,BDNF levels,BDNF; [3],863.40 ± 35.21 pg/mL
same,BDNF levels,BDNF; [4],776.40 ± 18.54 pg/mL
same,BDNF levels,BDNF; [5],939.15 ± 42.34 pg/mL
same,BDNF levels,BDNF; [6],828.05 ± 35.03 pg/mL
same,catalase levels,catalase; [3],36.84±1.68 U/mL
same,catalase levels,catalase; [4],29.34±1.50 U/mL
same,catalase levels,catalase; [5],38.91±2.65 U/mL
same,catalase levels,catalase; [6],30.24±1.58 U/mL
same,increase in number of correct responses in the BCST,trained runners [1],5.7%
same,reduction in number of errors in the BCST,trained runners [1],1.5%
same,reduction in number of preservative errors (PAR rules) in the BCST,trained runners [1],10.6%
same,reduction in number of preservative errors in the BCST,trained runners [1],4.6%
